Paper PMC9501172, “Gallic Acid Alkyl Esters: Trypanocidal and Leishmanicidal Activity, and Target Identification via Modeling Studies” (Molecules, 2022)
Values after ≈ are worked out from the molar mass of the structure shown. Like-named read-outs stand apart in the source and are kept apart here.

Columns and labels:
[1] = system: bloodstream forms of T. brucei; test: Trypanocidal activity, resazurin viability assay; assay type: cell-based, Trypanosoma brucei; details: for GI50 / MIC: Trypanosoma brucei; for MIC: concentration at which all cells were killed, determined microscopically
Method: (§1) Trypanocidal, leishmanicidal, and cytotoxic activities of gallic acid alkyl esters were determined with bloodstream forms of T. brucei (clone 427-221a), promastigotes of L. major (strain MHOM/IL/81/Friedlin [51]), and human myeloid HL-60 cell, respectively. The viability of cells was evaluated with the vital dye resazurin as previously described with some modifications. Cells were seeded in 96-well plates in a final volume of 200 μL Baltz medium (T. brucei bloodstream forms and HL-60 cells) or Schneider’s insect medium (L. major promastigotes) supplemented with 16.7% and 10% fetal bovine serum, respectively. Test compounds were assayed at tenfold dilutions starting from 100 μM down up to 100 nM in the presence of 0.9% DMSO. Wells containing medium with 0.9% DMSO alone served as controls. The initial cell densities were 1 × 10^4/mL for T. brucei bloodstream forms, 2.5 × 10^5/mL for L. major promastigotes, and 5 × 10^4/mL for HL-60 cells. The cultures were incubated at 37 °C (T. brucei bloodstream forms and HL-60 cells) and 27 °C (L. major promastigotes) in a humidified atmosphere containing 5% CO2. After 24 h of incubation, 20 µL of a 0.5 mM resazurin solution prepared in sterile PBS was added to each well, and the cultures were incubated for another 48 h. Then, the absorbance of each well was read on a BioTek ELx808 microplate reader using a test wavelength of 570 nm and a reference wavelength of 630 nm. The 50% growth inhibition (GI50) value, i.e., the concentration of a compound necessary to reduce the growth rate of cells by 50% compared to the control, was determined by linear interpolation. The minimum inhibitory concentration (MIC) value, i.e., the concentration of a compound at which all cells were killed, was determined microscopically.

[2] = system: human myeloid HL-60 cells; test: General cytotoxicity, resazurin viability assay; assay type: cell-based; details: for GI50 / MIC: Homo sapiens; for GI50: HL-60, 72 h, resazurin, 24 h + 48 h; for MIC: concentration at which all cells were killed, determined microscopically; for cytotoxicity against the human cells: HL-60, in words
Method: as §1

HL-60 / T. brucei = test: Selectivity: ratio of cytotoxic to trypanocidal activity; assay type: cell-based, Trypanosoma brucei; details: for GI50 Ratio: GI50(HL-60)/GI50(T. brucei); for MIC Ratio: MIC(HL-60)/MIC(T. brucei)
Method: as §1

[3] = system: promastigotes of L. major; test: Leishmanicidal activity, resazurin viability assay; assay type: cell-based, Leishmania major; details: for GI50: values in brackets; for inhibition at 100 µM: read-out: Growth Inhibition (% at 100 μM); for leishmanicidal activity: in words
Method: as §1

[4] = system: T. brucei bloodstream forms; test: Motility assay with glucose or glycerol as substrate; assay type: cell-based, Trypanosoma brucei; details: 55 mM glucose, compound 200 μM, PBS
Method: A culture of bloodstream forms of T. brucei was divided into two equal portions (9 mL) and collected by centrifugation. The cell pellets were resuspended in 1 mL PBS containing 55 mM glucose or 55 mM glycerol. After subsequent centrifugation, the cell pellets were resuspended again in PBS/55 mM glucose and PBS/55 mM glycerol, respectively, and the cell density was adjusted to 2 × 10^6/mL. Then, 100 μL of trypanosomes were mixed with 100 μL PBS/55 mM glucose or 100 μL PBS/55 mM glycerol containing gallic acid alkyl esters at a concentration of 400 μM, giving a final concentration of the esters in the assay of 200 μM. The final concentration of DMSO in each test was 0.9%. The motility of the trypanosomes was examined under the microscope.

Vero cells [5] = test: Cytotoxicity against Vero cells quoted from the literature; assay type: cell-based; details: for times Vero cells are less sensitive compared with HL-60 cells: GI50(Vero) vs GI50(HL-60); for selectivity: using the Vero cell cytotoxicity as the basis, relative to trypanocidal activity
Vero cells [6] = system: Vero cells; design: method as in PMID 18797755; details: cited from earlier work
T. brucei = details: cited from earlier work
[7] = system: murine B-lymphoma WEHI-231 cells; design: method as in PMID 9466819; details: cited from earlier work
[8] = 72 h, bloodstream forms clone 427-221a, resazurin, 24 h + 48 h, read-out: T. brucei GI50
[9] = bloodstream forms clone 427-221a
[10] = T. brucei bloodstream forms, GI50 expressed in μg/mL, read-out: GI50
[11] = trypanocidal activity of related phenolic esters

Structure (SMILES) | GI50 [1, 8] [µM] | MIC [1, 9] [µM] | GI50 [2] [µM] | MIC [2] [µM] | GI50 Ratio (HL-60 / T. brucei) | MIC Ratio (HL-60 / T. brucei) | MIC ([3]; Leishmania major) [µM] | inhibition at 100 µM ([3]; Leishmania major) [%] | Motility after 5 min [4] | further results
Cc1ccc(C(=O)Nc2ccc(S(=O)(=O)O)c3cc(S(=O)(=O)O)cc(S(=O)(=O)O)c23)cc1NC(=O)c1cccc(NC(=O)Nc2cccc(C(=O)Nc3cc(C(=O)Nc4ccc(S(=O)(=O)O)c5cc(S(=O)(=O)O)cc(S(=O)(=O)O)c45)ccc3C)c2)c1 [Suramin, reference compound] | 0.04 | 1 (≈ 1.3 µg/mL) | > 100 | > 100 | >2500 | >100 | – | – | – | times higher GI50 ratio than gallic acid alkyl esters 4, 5, and 6 (HL-60 / T. brucei): 100 times; times higher MIC ratio than gallic acid alkyl esters 4, 5, and 6 (HL-60 / T. brucei): 10 times
C[C@@H]1[C@H](O)[C@@H](C)/C=C/C=C/C=C/C=C/C=C/C=C/C=C/[C@H](O[C@@H]2O[C@H](C)[C@@H](O)[C@H](N)[C@@H]2O)C[C@@H]2O[C@](O)(C[C@@H](O)C[C@@H](O)[C@H](O)CC[C@@H](O)C[C@@H](O)CC(=O)O[C@H]1C)C[C@H](O)[C@H]2C(=O)O [Amphotericin B, reference compound] | – | – | – | – | – | – | 0.1 (≈ 0.0924 µg/mL) | – | – | inhibition at 10 µM ([3]; Leishmania major, at 10 μM, read-out: Growth Inhibition (%)): 100%; GI50 ([3]; Leishmania major): 0.04 µM
CCCOC(=O)c1cc(O)c(O)c(O)c1 [Compound 4, Gallic acid propyl ester] | ~3 | 10 (≈ 2.12 µg/mL) | 82 ± 8.2 | > 100 | – | >10 | 100 (≈ 21.2 µg/mL) | 61 | + + + | times less active compared with suramin ([1]; T. brucei bloodstream forms): 10–100 times; GI50 [1, 10]: 0.63 to 0.78 µg/mL; GI50 ([3]; Leishmania major): 50.4 µM; times Vero cells are less sensitive compared with HL-60 cells (Vero cells [5]): 8.7 times; selectivity (Vero cells [5]): > 100; GI50 (Vero cells [6]): 713 µM
CCOC(=O)C=Cc1ccc(O)c(OC)c1 [ferulic acid ethyl ester, 3-methoxy-4-hydroxycinnamic (ferulic) acid ethyl ester] | – | – | – | – | – | – | – | – | – | GI50 (T. brucei; [11]): 110 µM
CCCCOC(=O)c1cc(O)c(O)c(O)c1 [Compound 5, Gallic acid butyl ester] | ~3 | 10 (≈ 2.26 µg/mL) | 74.8 ± 4.5 | > 100 | – | >10 | 100 (≈ 22.6 µg/mL) | 58 | + + + | times less active compared with suramin ([1]; T. brucei bloodstream forms): 10–100 times; GI50 [1, 10]: 0.63 to 0.78 µg/mL; GI50 ([3]; Leishmania major): 62.4 µM; times Vero cells are less sensitive compared with HL-60 cells (Vero cells [5]): 4.8 times; selectivity (Vero cells [5]): > 100; GI50 (Vero cells [6]): 361 µM
CCOC(=O)c1cc(O)c(O)c(O)c1 [Compound 2, Gallic acid ethyl ester] | 27.9 ± 2.4 | 100 (≈ 19.8 µg/mL) | > 100 | > 100 | >3.6 | >1 | > 100 | 0 | + + + | cytotoxicity against the human cells [2]: no cytotoxicity; leishmanicidal activity [3]: no leishmanicidal activity
O=C(/C=C/c1ccc(O)c(O)c1)OCCc1ccccc1 [caffeic acid phenethyl ester] | – | – | – | – | – | – | – | – | – | GI50 (T. brucei; trypanocidal activity): 0.046 µM
COCCOC(=O)c1cc(O)c(O)c(O)c1 [Compound 8, Gallic acid 2-methoxyethyl ester] | 5.6 ± 1.3 | 100 (≈ 22.8 µg/mL) | 99.2 ± 9.4 | > 100 | 17.7 | >1 | 100 (≈ 22.8 µg/mL) | 47 | + + + | melting point: 152 to 153 °C
CCCCCCCCOC(=O)c1cc(O)c(O)c(O)c1 [octyl gallate] | – | – | – | – | – | – | – | – | – | GI50 [7]: 1.5 µM
CCCCCOC(=O)c1cc(O)c(O)c(O)c1 [Compound 7, Gallic acid pentyl ester] | 32.8 ± 0.9 | 100 (≈ 24 µg/mL) | > 100 | > 100 | >3.0 | >1 | > 100 | 0 | + + + | cytotoxicity against the human cells [2]: no cytotoxicity; leishmanicidal activity [3]: no leishmanicidal activity; melting point: 94 to 96 °C
CC(C)OC(=O)c1cc(O)c(O)c(O)c1 [Compound 3, Gallic acid isopropyl ester] | 8.4 ± 2.2 | 100 (≈ 21.2 µg/mL) | 87.9 ± 8.2 | > 100 | 10.5 | >1 | > 100 | 34 | + + + | –
O=C(O)c1cc(O)c(O)c(O)c1 [gallic acid, 3,4,5-trihydroxybenzoic acid] | – | – | – | – | – | – | – | – | – | GI50 (T. brucei; trypanocidal activity of the reactant): 14.2 µM
CC(C)CCOC(=O)C=Cc1ccc(O)c(O)c1 [caffeic acid isopentyl ester, 3,4-dihydroxycinnamic (caffeic) acid isopentyl ester] | – | – | – | – | – | – | – | – | – | GI50 (T. brucei; [11]): 1.24 µM
CC(C)CCOC(=O)c1cc(O)c(O)c(O)c1 [Compound 6, Gallic acid isopentyl ester] | ~3 | 10 (≈ 2.4 µg/mL) | 90.4 ± 21.6 | > 100 | – | >10 | 100 (≈ 24 µg/mL) | 45 | + + + | times less active compared with suramin ([1]; T. brucei bloodstream forms): 10–100 times; GI50 [1, 10]: 0.63 to 0.78 µg/mL
CCCCCCCCCCCCOC(=O)c1cc(O)c(O)c(O)c1 [dodecyl gallate] | – | – | – | – | – | – | – | – | – | GI50 [7]: 1 µM
COC(=O)c1cc(O)c(O)c(O)c1 [Compound 1, Gallic acid methyl ester] | 24.5 ± 4.5 | 100 (≈ 18.4 µg/mL) | > 100 | > 100 | >4.1 | >1 | > 100 | 2 | + + + | cytotoxicity against the human cells [2]: no cytotoxicity
